The conditions of data set [1]: previous reported; cited from earlier work.
Data set [2] deals with PDX1 tumors. Briefly: Patient-derived xenograft (PDX1) model of endometrial cancer, tumor growth. The settings on record: PDX1 mice, twice a week for 4 weeks; compared to control PLGA nanoparticles (combination: compared to all other groups). In kind it is in vivo. The method, then:
Patient-derived xenograft (PDX) studies: A PDX model of endometrial cancer (PDX1) has been previously described (Luo et al., 2010). NOD.Cg-Prkdcscid Il2rgtm1Wjl/SzJ (NSG, Jackson Laboratories, Bar Harbor, Me.) immunodeficient female mice at 8 weeks of age were injected with passage 3 of PDX1 tumor tissue (10 mg/100 μl medium) into the right flank subcutaneously. The mice were randomly divided into 4 groups, with 5 mice per drug treated group, and 4 mice comprised the empty nanoparticle control group. Treatment was started on day 15 after engraftment of cells. The dose of pristimerin delivered in nanoparticles was 60 μg for each mouse and was administered by intravenous injection (IV) injection twice a week for a total of 4 weeks. The dose of cisplatin was […] for each mouse and was administered by intraperitoneal (IP) injection twice a week for a total of 4 weeks. After 2 weeks of treatment, tumors were measured weekly using calipers, and volumes were calculated using the formula length×width^2/2.
All animal studies were performed under animal protocols #7051085 approved by the University of Iowa Institutional Animal Care and Use Committee (Iowa City, Iowa). MTDH knockout mice were generated as described previously (Meng et al., 2015). […] After 2 weeks of treatment, tumors were measured weekly using calipers, and volumes were calculated using the formula […].
In general terms: Xenograft models place foreign cells or tissue in a host animal.

Data set [3] deals with MDA-MB-231 cells. Briefly: Cell viability by WST-1 assay in MDA-MB-231 cells. It is filed as cell-based. As to conditions: Homo sapiens, pristimerin 72 hours. As for the experimental part:
(§1) Cell viability was determined by WST-1 assay. Cells were seeded into 96-well plates (1×10^4 cells per well) then treated with cisplatin (Fresenius Kabi Oncology Ltd, Haryana, India) or the combination of cisplatin with pristimerin in solution (Cayman Chemical, Ann Arbor, Mich.). Cell viability was evaluated using the cell proliferation reagent WST-1 (Roche, Germany) according to the manufacturer's protocol. The absorbance was measured with a micro-plate reader (BioRad). Data were calculated as percent (%) viability relative to untreated control, which was set at 100%.
(§2) Cell viability was determined by WST-1 assay. Cells were seeded into 96-well plates (1×10^4 cells per well) then treated with cisplatin (Fresenius Kabi Oncology Ltd., Haryana, India) or the combination of cisplatin with pristimerin in solution (Cayman Chemical, Ann Arbor, Mich.). Cell viability was evaluated using the cell proliferation reagent WST-1 (Roche, Germany) according to the manufacturer's protocol. Absorbance was measured with a microplate reader (BioRad). Data were calculated as percent (%) viability relative to untreated control, which was set at 100%.
A general note: Formazan colour is commonly taken as a measure of viable cells.

A short description of data set [4]: Solubility and pharmacokinetics (statement). As to conditions: pristimerin in solution.
For data set [5], the system named is Hec50 cells. Briefly: Cell viability by WST-1 assay in Hec50 cells. As to conditions: pristimerin 72 hours. In kind it is cell-based. As for the experimental part:
as §1, §2

Data set [6] has as its system KLE cells. Briefly: Cell viability by WST-1 assay in KLE cells. In kind it is cell-based. The settings on record: Homo sapiens, pristimerin 72 hours. The method, then: as §1, §2
The target of data set [7] is P-glycoprotein (P-gp) efflux transporter (Homo sapiens, UniProt P08183). The settings on record: not told; cited from earlier work.

pIC50: −log10 of the molar value. Where two headings read alike, the source gives them in different places.

P-glycoprotein (P-gp) efflux transporter, sequence (P08183 whole entry): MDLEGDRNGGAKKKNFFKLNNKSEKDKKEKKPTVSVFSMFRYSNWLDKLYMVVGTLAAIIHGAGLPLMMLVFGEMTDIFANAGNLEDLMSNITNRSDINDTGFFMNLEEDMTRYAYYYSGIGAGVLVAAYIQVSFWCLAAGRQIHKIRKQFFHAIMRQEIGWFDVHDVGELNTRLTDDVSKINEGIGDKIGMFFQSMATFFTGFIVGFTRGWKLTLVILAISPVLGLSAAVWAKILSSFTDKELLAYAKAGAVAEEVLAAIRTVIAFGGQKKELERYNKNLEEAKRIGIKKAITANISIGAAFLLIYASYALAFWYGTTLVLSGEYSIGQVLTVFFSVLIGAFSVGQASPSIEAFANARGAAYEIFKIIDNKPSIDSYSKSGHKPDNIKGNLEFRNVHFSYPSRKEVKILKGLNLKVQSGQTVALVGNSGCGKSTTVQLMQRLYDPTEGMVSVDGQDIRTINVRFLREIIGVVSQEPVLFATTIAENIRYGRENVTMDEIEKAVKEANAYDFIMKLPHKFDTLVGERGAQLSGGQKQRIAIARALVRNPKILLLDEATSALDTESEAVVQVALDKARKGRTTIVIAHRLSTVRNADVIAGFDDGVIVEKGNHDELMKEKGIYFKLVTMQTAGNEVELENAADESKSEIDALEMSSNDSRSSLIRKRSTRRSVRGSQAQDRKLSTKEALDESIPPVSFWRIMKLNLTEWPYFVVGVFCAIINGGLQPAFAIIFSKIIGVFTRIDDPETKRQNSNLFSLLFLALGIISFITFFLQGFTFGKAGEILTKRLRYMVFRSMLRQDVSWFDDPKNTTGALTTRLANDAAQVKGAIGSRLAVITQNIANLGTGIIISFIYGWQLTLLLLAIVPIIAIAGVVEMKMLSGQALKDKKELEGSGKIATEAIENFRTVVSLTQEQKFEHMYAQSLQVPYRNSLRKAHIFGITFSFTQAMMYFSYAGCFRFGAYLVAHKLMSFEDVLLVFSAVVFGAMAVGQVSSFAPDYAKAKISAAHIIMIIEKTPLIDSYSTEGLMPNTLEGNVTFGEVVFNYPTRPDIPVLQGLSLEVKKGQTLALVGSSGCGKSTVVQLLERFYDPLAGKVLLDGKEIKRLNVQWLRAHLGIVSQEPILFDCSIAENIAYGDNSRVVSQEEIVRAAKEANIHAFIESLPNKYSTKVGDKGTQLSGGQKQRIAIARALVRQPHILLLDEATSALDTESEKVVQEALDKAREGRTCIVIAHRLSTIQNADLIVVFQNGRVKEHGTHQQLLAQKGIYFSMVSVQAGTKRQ

For the compound `CC1=C(O)C(=O)C=C2C1=CC=C1[C@@]2(C)CC[C@@]2(C)[C@@H]3C[C@](C)(C(=O)O)CC[C@]3(C)CC[C@]12C` [celastrol], the solubility and pharmacokinetics result in data set [1] is reported as “poor”.

As to `N.N.[Cl][Pt][Cl]` [cisplatin], the tumor growth result in data set [2] is on record as “significantly inhibited”.

What is called pIC50 is the IC50 on a negative log10 scale, so that one unit is a factor of ten. Take `COC(=O)[C@]1(C)CC[C@]2(C)CC[C@]3(C)C4=CC=C5C(=CC(=O)C(O)=C5C)[C@]4(C)CC[C@@]3(C)[C@@H]2C1` [pristimerin, Pristimerin]: the negative logarithm of the IC50 (pIC50) in data set [3], in data set [5] and in data set [6] was above 6.00 each time. Moreover, the solubility and pharmacokinetics result in data set [4] is “poor”. Moreover, the “substrate to P-gp” value in data set [7] was “substrate”.
